According to patent US10758534B2 (Vertex Pharmaceuticals Incorporated, priority 2014, dated 2020):

Molecular target: T1, F508del (Homo sapiens, UniProt P13569, DEL508-508)
T1 construct: expressed in transfected cells
Test: Protocol 1: membrane potential optical assay (FLIPR III, voltage sensing dye), identification of potentiator compounds
Format: cell-based
Settings: Table 3, compounds of Table 1
Summary of the method: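 Mouse NIH 3T3 fibroblasts stably expressing F508del, temperature-corrected at 27 °C for 24 h, pretreated with compound, then loaded with voltage-sensing redistribution dye. Forskolin was added in a single step with a chloride gradient (chloride-free gluconate bath; Bath Solution #1 HEPES pH 7.4). Membrane-potential fluorescence read on FLIPR III.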

T1 sequence (P13569 with tags, fused parts or gaps DEL508-508): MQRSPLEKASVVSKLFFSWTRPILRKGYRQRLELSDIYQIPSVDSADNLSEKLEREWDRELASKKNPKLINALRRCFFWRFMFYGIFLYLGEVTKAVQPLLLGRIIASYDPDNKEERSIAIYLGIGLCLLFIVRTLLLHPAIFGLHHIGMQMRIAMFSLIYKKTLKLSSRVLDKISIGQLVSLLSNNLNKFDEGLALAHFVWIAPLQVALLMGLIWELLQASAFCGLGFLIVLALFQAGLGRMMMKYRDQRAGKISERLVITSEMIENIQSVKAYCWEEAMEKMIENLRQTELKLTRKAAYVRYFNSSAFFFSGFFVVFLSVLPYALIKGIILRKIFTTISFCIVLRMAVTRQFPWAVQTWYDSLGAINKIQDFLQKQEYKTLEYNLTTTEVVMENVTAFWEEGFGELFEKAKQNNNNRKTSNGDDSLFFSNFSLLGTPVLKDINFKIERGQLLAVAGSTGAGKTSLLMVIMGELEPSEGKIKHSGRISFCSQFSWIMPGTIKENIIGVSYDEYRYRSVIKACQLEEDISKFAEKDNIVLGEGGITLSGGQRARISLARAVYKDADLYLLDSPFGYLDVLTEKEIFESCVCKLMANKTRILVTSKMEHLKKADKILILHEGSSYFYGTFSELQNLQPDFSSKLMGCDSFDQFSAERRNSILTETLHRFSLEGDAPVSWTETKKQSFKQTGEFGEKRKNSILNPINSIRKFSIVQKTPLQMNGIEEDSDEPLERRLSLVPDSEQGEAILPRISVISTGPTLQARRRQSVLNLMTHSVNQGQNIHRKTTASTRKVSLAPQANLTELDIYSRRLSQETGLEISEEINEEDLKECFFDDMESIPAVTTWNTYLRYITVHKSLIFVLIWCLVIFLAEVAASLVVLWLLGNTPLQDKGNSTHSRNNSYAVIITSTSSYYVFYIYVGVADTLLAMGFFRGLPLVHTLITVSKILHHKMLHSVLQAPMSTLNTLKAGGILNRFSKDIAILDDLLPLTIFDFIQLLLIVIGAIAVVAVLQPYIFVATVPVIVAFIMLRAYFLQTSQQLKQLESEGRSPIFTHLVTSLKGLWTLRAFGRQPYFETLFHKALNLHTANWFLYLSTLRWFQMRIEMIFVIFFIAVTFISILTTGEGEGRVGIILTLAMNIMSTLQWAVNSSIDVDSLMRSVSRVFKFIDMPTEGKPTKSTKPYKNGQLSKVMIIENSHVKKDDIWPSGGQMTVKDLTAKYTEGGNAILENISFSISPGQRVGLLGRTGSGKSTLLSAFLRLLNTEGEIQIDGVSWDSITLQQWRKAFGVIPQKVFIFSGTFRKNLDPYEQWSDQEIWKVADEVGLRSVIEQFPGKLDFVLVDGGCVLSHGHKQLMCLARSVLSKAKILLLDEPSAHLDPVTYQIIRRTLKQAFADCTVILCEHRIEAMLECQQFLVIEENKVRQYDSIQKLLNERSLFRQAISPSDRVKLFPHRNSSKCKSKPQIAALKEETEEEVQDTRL

EC30 | Structure (SMILES)
++ (“++” means between 3 uM and 10 uM) | Cc1cc(C)c(Oc2ncc(C3(C)CC3)cc2C(=O)NS(=O)(=O)c2cccc(N)n2)c(C)c1 [Compound 854, N-[(6-amino-2-pyridyl)sulfonyl]-5-(1-methylcyclopropyl)-2-(2,4,6-trimethylphenoxy)pyridine-3-carboxamide]
+++ (“+++” means <3 uM) | Cc1cc(C)c(Cn2nc(C(C)(C)C)cc2C(=O)NS(=O)(=O)c2cn(C)cn2)c(C)c1 [Compound 1568, 5-tert-butyl-N-(1-methylimidazol-4-yl)sulfonyl-2-[(2,4,6-trimethylphenyl)methyl]pyrazole-3-carboxamide]
++ (“++” means between 3 uM and 10 uM) | CCOCCOCCOc1cc(-c2ccc(C(=O)NS(=O)(=O)c3cccc(N)n3)c(N3C[C@@H](C)CC3(C)C)n2)cc(C)n1 [Compound 1812, N-[(6-amino-2-pyridyl)sulfonyl]-6-[2-[2-(2-ethoxyethoxy)ethoxy]-6-methyl-4-pyridyl]-2-[(4S)-2,2,4-trimethylpyrrolidin-1-yl]pyridine-3-carboxamide]
+++ (“+++” means <3 uM) | CC(C)C(C)c1ccc(C(=O)NS(=O)(=O)c2cccnc2N)c(N2C[C@@H](C)CC2(C)C)n1 (stereo partly drawn) [Compound 1911, N-[(2-amino-3-pyridyl)sulfonyl]-6-(1,2-dimethylpropyl)-2-[(4S)-2,2,4-trimethylpyrrolidin-1-yl]pyridine-3-carboxamide]
+++ (“+++” means <3 uM) | CCCN(C)c1cccc(S(=O)(=O)NC(=O)c2cccnc2N2CC(C)CC2(C)C)n1 (centres unmarked) [Compound 1711, N—[[6-[methyl(propyl)amino]-2-pyridyl]sulfonyl]-2-(2,2,4-trimethylpyrrolidin-1-yl)pyridine-3-carboxamide]
++ (“++” means between 3 uM and 10 uM) | CC1CN(c2nc(C(C)(C)C)c(C3=CCC(C(=O)O)CC3)cc2C(=O)NS(=O)(=O)c2cccc(N)n2)C(C)(C)C1 (centres unmarked) [Compound 1381, 4-[5-[(6-amino-2-pyridyl)sulfonylcarbamoyl]-2-tert-butyl-6-(2,2,4-trimethylpyrrolidin-1-yl)-3-pyridyl]cyclohex-3-ene-1-carboxylic acid]
+++ (“+++” means <3 uM) | CC1CN(c2ncccc2C(=O)NS(=O)(=O)c2cccc(N3CCc4c([nH]c5ccccc45)C3)n2)C(C)(C)C1 (centres unmarked) [Compound 1833, N—[[6-(1,3,4,9-tetrahydropyrido[3,4-b]indol-2-yl)-2-pyridyl]sulfonyl]-2-(2,2,4-trimethylpyrrolidin-1-yl)pyridine-3-carboxamide]
+++ (“+++” means <3 uM) | Cc1ccc(C)c(-c2ccc(C(=O)NS(=O)(=O)c3ccc[nH]c3=O)c(N3C[C@@H](C)CC3(C)C)n2)c1 [Compound 1990, 6-(2,5-dimethylphenyl)-N-[(2-oxo-1H-pyridin-3-yl)sulfonyl]-2-[(4S)-2,2,4-trimethylpyrrolidin-1-yl]pyridine-3-carboxamide]
++ (“++” means between 3 uM and 10 uM) | CC(C)Oc1ccc(-c2ccc(C(=O)NS(=O)(=O)c3cccc(N)n3)c(NCc3ccccc3)n2)cn1 [Compound 1026, N-[(6-amino-2-pyridyl)sulfonyl]-2-(benzylamino)-6-(6-isopropoxy-3-pyridyl)pyridine-3-carboxamide]
++ (“++” means between 3 uM and 10 uM) | Cc1ccc(-c2nc(C(C)(C)C)ccc2C(=O)NS(=O)(=O)c2cccc(O)c2)cc1 [Compound 1265, 6-tert-butyl-N-(3-hydroxyphenyl)sulfonyl-2-(p-tolyl)pyridine-3-carboxamide]
+++ (“+++” means <3 uM) | C[C@@H]1CN(c2nc(C(C)(C)C)c(C(O)C(O)C(C)(C)C)cc2C(=O)NS(=O)(=O)c2cccc(N)n2)C(C)(C)C1 (some centres unmarked) [Compound 1883]
+++ (“+++” means <3 uM) | CCCc1ccc(S(=O)(=O)NC(=O)C2(C)c3cccc(OCC)c3CN2Cc2c(C)cc(C)cc2C)cc1N (centres unmarked) [Compound 1367, N-(3-amino-4-propyl-phenyl)sulfonyl-4-ethoxy-1-methyl-2-[(2,4,6-trimethylphenyl)methyl]isoindoline-1-carboxamide]
+++ (“+++” means <3 uM) | CC(C)Oc1ccc(-c2ccc(C(=O)NS(=O)(=O)c3cccc(N)n3)c(N3C(C)CCC3(C)C)n2)cn1 (centres unmarked) [Compound 1040, N-[(6-amino-2-pyridyl)sulfonyl]-6-(6-isopropoxy-3-pyridyl)-2-(2,2,5-trimethylpyrrolidin-1-yl)pyridine-3-carboxamide]
+++ (“+++” means <3 uM) | CC(C)=Cc1ccc(C(=O)NS(=O)(=O)c2cccc(N)n2)c(N2C[C@@H](C)CC2(C)C)n1 [Compound 1683, N-[(6-amino-2-pyridyl)sulfonyl]-6-(2-methylprop-1-enyl)-2-[(4S)-2,2,4-trimethylpyrrolidin-1-yl]pyridine-3-carboxamide]
++ (“++” means between 3 uM and 10 uM) | Cc1ccc(-c2ccc(C(=O)NS(=O)(=O)c3cccc(N)n3)c(N3[C@H](C)CC[C@@H]3C)n2)cc1 [Compound 1078, N-[(6-amino-2-pyridyl)sulfonyl]-2-[(2R,5S)-2,5-dimethylpyrrolidin-1-yl]-6-(p-tolyl)pyridine-3-carboxamide]
+++ (“+++” means <3 uM) | COc1cc(-c2ccc(C(=O)NS(=O)(=O)c3cccc(N)n3)c(N3C[C@@H](C)CC3(C)C)n2)cc(C)n1 [Compound 1748, N-[(6-amino-2-pyridyl)sulfonyl]-6-(2-methoxy-6-methyl-4-pyridyl)-2-[(4S)-2,2,4-trimethylpyrrolidin-1-yl]pyridine-3-carboxamide]
++ (“++” means between 3 uM and 10 uM) | C[C@@H]1CN(c2nc(-c3cccc(O)c3)ccc2C(=O)NS(=O)(=O)c2cccnc2N)C(C)(C)C1 [Compound 1820, N-[(2-amino-3-pyridyl)sulfonyl]-6-(3-hydroxyphenyl)-2-[(4S)-2,2,4-trimethylpyrrolidin-1-yl]pyridine-3-carboxamide]
+++ (“+++” means <3 uM) | CC(C)(C)c1ccc(C(=O)NS(=O)(=O)c2cccc(N)n2)c(Oc2ccc(F)cc2F)n1 [Compound 829, N-[(6-amino-2-pyridyl)sulfonyl]-6-tert-butyl-2-(2,4-difluorophenoxy)pyridine-3-carboxamide]
+++ (“+++” means <3 uM) | COc1ccc(-c2ccc(C(=O)NS(=O)(=O)c3cccnc3N)c(N3C[C@@H](C)CC3(C)C)n2)cc1F [Compound 1851, N-[(2-amino-3-pyridyl)sulfonyl]-6-(3-fluoro-4-methoxy-phenyl)-2-[(4S)-2,2,4-trimethylpyrrolidin-1-yl]pyridine-3-carboxamide]
+++ (“+++” means <3 uM) | Cc1cc(C)c(Oc2nc(C3=CCCCCC3)ccc2C(=O)NS(=O)(=O)c2cccc(N)n2)c(C)c1 [Compound 1513, N-[(6-amino-2-pyridyl)sulfonyl]-6-(cyclohepten-1-yl)-2-(2,4,6-trimethylphenoxy)pyridine-3-carboxamide]

Structure (SMILES) | EC30
CC(C)COc1cc(F)cc(-c2ccc(C(=O)NS(=O)(=O)c3cccc(N)n3)c(-n3nc(C(C)C)cc3C(C)C)n2)c1 [Compound 1387, N-[(6-amino-2-pyridyl)sulfonyl]-2-(3,5-diisopropylpyrazol-1-yl)-6-(3-fluoro-5-isobutoxy-phenyl)pyridine-3-carboxamide] | +++ (“+++” means <3 uM)
CC(C)COc1cc(F)cc(-c2ccc(C(=O)NS(=O)(=O)N3CC4CC4(N)C3)c(N3C[C@@H](C)CC3(C)C)n2)c1 (stereo partly drawn) [Compound 1521, N-[(5-amino-3-azabicyclo[3.1.0]hexan-3-yl)sulfonyl]-6-(3-fluoro-5-isobutoxy-phenyl)-2-[(4S)-2,2,4-trimethylpyrrolidin-1-yl]pyridine-3-carboxamide] | +++ (“+++” means <3 uM)
CC(C)COc1cc(F)cc(-c2ccc(C(=O)NS(=O)(=O)c3cccc(N)n3)c(N3CC(C(F)(F)F)CCC3C)n2)c1 (centres unmarked) [Compound 1835, N-[(6-amino-2-pyridyl)sulfonyl]-6-(3-fluoro-5-isobutoxy-phenyl)-2-[2-methyl-5-(trifluoromethyl)-1-piperidyl]pyridine-3-carboxamide] | +++ (“+++” means <3 uM)
CC(C)COc1cc(F)cc(-c2ccc(C(=O)NS(=O)(=O)c3cccc(N)n3)c(OC3CC3)n2)c1 [Compound 1446, N-[(6-amino-2-pyridyl)sulfonyl]-2-(cyclopropoxy)-6-(3-fluoro-5-isobutoxy-phenyl)pyridine-3-carboxamide] | +++ (“+++” means <3 uM)
CC1CN(c2ncccc2C(=O)NS(=O)(=O)c2cccc(OC3(C)CCCC3)n2)C(C)(C)C1 (centres unmarked) [Compound 1936, N—[[6-(1-methylcyclopentoxy)-2-pyridyl]sulfonyl]-2-(2,2,4-trimethylpyrrolidin-1-yl)pyridine-3-carboxamide] | +++ (“+++” means <3 uM)
CC(C)COc1cc(F)cc(-c2ccc(C(=O)NS(=O)(=O)c3cccc(N)n3)c(N3CCCC3c3ccccc3)n2)c1 (centres unmarked) [Compound 859, N-[(6-amino-2-pyridyl)sulfonyl]-6-(3-fluoro-5-isobutoxy-phenyl)-2-(2-phenylpyrrolidin-1-yl)pyridine-3-carboxamide] | +++ (“+++” means <3 uM)
COCC1CCN(c2nc(-c3cc(F)cc(OCC(C)C)c3)ccc2C(=O)NS(=O)(=O)c2ccn[nH]2)CC1 [Compound 975, 6-(3-fluoro-5-isobutoxy-phenyl)-2-[4-(methoxymethyl)-1-piperidyl]-N-(1H-pyrazol-5-ylsulfony)pyridine-3-carboxamide] | ++ (“++” means between 3 uM and 10 uM)
CC(C)COc1cc(F)cc(-c2ccc(C(=O)NS(=O)(=O)c3cccc(N)n3)c(N3CCC[C@H]3c3ccccc3)n2)c1 [Compound 1260, N-[(6-amino-2-pyridyl)sulfonyl]-6-(3-fluoro-5-isobutoxy-phenyl)-2-[(2S)-2-phenylpyrrolidin-1-yl]pyridine-3-carboxamide] | +++ (“+++” means <3 uM)
CC(C)COc1cc(F)cc(-c2ccc(C(=O)NS(=O)(=O)c3ccn[nH]3)c(N3Cc4ccccc4C3)n2)c1 [Compound 981, 6-(3-fluoro-5-isobutoxy-phenyl)-2-isoindolin-2-yl-N-(1H-pyrazol-5-ylsulfonyl)pyridine-3-carboxamide] | ++ (“++” means between 3 uM and 10 uM)
